# Results: ChEMBL document CHEMBL1147827, “A pyrimidine-pyrazolone nucleoside chimera with potent in vitro anti-orthopoxvirus activity” (Bioorg Med Chem Lett, 2006)
# Test system: Vaccinia virus
# Assay: Antiviral activity against Vaccinia virus Copenhagen in HFF cells assessed as reduction in cytopathogenicity
# Format: functional, organism-based
# Conditions: Orthopoxvirus vaccinia
compound,measurement,value
CC(=O)OC[C@H]1O[C@@H](n2cc(/C=C3\C(=O)N(c4ccccc4)N=C3C)c(=O)[nH]c2=O)C[C@@H]1OC(C)=O,EC50,32 µM
